According to US20050197402A1 (priority 2004, published 2005):

Experiment: Modulated differential scanning calorimetry (MDSC/DSC), thermal stability / decomposition
Type: physicochemical
Conditions: for onset of decomposition: MDSC data
Text: Differential Scanning Calorimetry (DSC) measures heat flow as a function of time or temperature and is used to study material transformation whether they be physical, such as phase changes, or chemical, such as decomposition. There are several parameters that can be obtained from a DSC thermogram. In the present work, the focus was on the onset temperature, the temperature of the peak minimum, and the peak width. DSC information is useful in understanding the purity and nature of material. For example, when a pure crystalline substance melts, the melting point is sharp. In DSC, that sharpness is shown by a narrow melting peak in the thermogram. If there are impurities or defects in the crystalline nature, the melting takes place at lower temperatures and over a larger range of temperatures. In DSC, the impurities are shown by a lower onset temperature and peak temperature, and a broader peak in the thermogram. When there are discrete impurities, they can melt at their melting points. In DSC, discrete impurities can be shown by additional peaks in the thermogram.
While a decomposition curve is usually broader and can be more complicated, some of the same phenomena are seen as with melting. Impurities and defects will cause broader and lower temperature peaks. Discrete impurities can show their own decomposition peaks.
These were made at slightly different stoichiometries. The onset temperature, the temperature at peak minimum, and the peak width are labeled.

[1] = modulated DSC thermogram, spray-dried polymorph of PMC2, K:Mg ratio less than 4.0

| Molecule | onset of decomposition | endothermic peak for decomposition: onset temperature [1] | endothermic peak for decomposition: peak minimum temperature [1] | endothermic peak for decomposition: peak width [1] | DSC decomposition behaviour (in words) (spray-dried sample in a vented pan, compared to sample dried in an oven or at room temperature) |
| --- | --- | --- | --- | --- | --- |
| magnesium citrate [reference compound] | 250 °C |  |  |  |  |
| O=C([O-])CC(O)(CC(=O)[O-])C(=O)[O-].O=C([O-])CC(O)(CC(=O)[O-])C(=O)[O-].[K+].[K+].[K+].[K+].[Mg+2] [PMC2, potassium magnesium citrate] | approximately 310 °C | greater than 320 °C | greater than 327 °C | less than 9 °C |  |
| O=C([O-])CC(O)(CC(=O)[O-])C(=O)[O-].O=C([O-])CC(O)(CC(=O)[O-])C(=O)[O-].[K+].[K+].[K+].[K+].[Mg+2] [PMC, potassium magnesium citrate] |  |  |  |  | decomposed at a much lower temperature and with a broader decomposition peak |
| O=C([O-])CC(O)(CC(=O)[O-])C(=O)[O-].[K+].[K+].[K+] [potassium citrate, reference compound] | 260 °C |  |  |  |  |
